In one assay the target is T1, TBK1 (Homo sapiens, UniProt Q9UHD2).
T1 sequence (Q9UHD2 1-729): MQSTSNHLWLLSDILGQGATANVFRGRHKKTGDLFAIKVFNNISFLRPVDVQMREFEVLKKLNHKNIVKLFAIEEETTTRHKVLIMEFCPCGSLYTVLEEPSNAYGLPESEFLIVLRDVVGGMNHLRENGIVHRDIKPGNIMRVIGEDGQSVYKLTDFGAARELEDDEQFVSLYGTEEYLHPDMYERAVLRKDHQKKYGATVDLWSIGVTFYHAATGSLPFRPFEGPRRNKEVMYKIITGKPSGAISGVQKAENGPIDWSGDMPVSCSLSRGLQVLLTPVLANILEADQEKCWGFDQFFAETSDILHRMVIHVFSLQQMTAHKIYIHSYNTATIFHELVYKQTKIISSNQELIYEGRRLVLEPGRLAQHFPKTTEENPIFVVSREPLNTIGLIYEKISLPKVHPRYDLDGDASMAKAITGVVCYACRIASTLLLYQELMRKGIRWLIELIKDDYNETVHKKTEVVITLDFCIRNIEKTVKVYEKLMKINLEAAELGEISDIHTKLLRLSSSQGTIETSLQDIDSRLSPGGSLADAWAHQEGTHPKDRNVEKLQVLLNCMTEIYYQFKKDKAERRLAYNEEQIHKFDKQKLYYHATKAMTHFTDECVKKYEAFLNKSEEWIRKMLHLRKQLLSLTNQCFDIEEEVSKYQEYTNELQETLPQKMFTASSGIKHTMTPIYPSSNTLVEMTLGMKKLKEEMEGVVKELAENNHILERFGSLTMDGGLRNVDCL
The assay can be described thus: TBK Biochemical Assay. The following applies: read-out: TBK1 IC50. In a few lines:
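TBK1 enzyme and substrate incubated with compounds (10-point 1:4 dilution, top 30 uM final, 1% DMSO) for 90 min at 25° C, then stopped. Substrate/product peaks read by microfluidic mobility-shift (Caliper LabChip); 10 uM staurosporine as full-inhibition control.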

A further assay deals with T2, IKKε (Homo sapiens, UniProt Q14164).
T2 sequence (Q14164 1-716): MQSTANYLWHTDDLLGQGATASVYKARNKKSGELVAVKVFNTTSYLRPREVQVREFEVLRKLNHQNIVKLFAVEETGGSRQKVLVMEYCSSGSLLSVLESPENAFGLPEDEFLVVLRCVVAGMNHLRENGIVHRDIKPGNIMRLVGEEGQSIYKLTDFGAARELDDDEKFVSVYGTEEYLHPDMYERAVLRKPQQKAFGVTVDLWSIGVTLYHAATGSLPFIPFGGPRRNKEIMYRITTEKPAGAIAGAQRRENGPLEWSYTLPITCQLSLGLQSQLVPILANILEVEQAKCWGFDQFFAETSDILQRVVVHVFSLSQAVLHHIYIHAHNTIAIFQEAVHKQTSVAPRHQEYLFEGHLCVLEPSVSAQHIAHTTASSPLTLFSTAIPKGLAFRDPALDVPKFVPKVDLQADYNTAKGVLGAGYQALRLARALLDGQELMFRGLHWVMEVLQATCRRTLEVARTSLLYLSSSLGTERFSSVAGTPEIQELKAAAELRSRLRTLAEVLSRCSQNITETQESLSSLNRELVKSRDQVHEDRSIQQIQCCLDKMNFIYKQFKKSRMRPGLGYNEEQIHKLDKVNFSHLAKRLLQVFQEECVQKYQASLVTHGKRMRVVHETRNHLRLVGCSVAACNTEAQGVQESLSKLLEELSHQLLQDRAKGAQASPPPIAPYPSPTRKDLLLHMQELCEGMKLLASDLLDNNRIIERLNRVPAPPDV
Description: IKKe Biochemical Assay. The following applies: read-out: IKKε IC50. In a few lines: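 Recombinant IKKε and substrate were incubated with compound (10-point 1:4 series, top 30 uM final, 1% DMSO) for 90 min at 25° C, then stopped. Substrate-to-product conversion was read by LabChip microfluidic mobility shift; 10 uM staurosporine served as full-inhibition wells.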

The subject of assay [1] is phosphorylation of the IRF-3 protein in MDA-MB-468 cells. The assay can be described thus: pIRF3 immunocytochemistry cell based assay. The conditions noted are these: Homo sapiens. In short, it runs like this: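 MDA-MB-468 cells got compounds (10-point, 3-fold from 10 uM) for 1 h at 37 °C, then 10 ug/ml Poly(I:C) for 2 h. Fixed, permeabilized cells were immunostained for pIRF3 with AlexaFluor488 and counterstained with PI. % phosphorylation was read by laser scanning cytometry, and IC50 curves were fitted.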

The mark [2] stands for this setting: MDA-MB-468, read-out: pIRF3 IC50.
Where [3] appears, read: MDA-MB-468 cells, Poly(I:C) stimulation, read-out: pIRF3 IC50.

Where a name gives a salt, the structure may show the parent alone. Read-outs that look alike come from different tables or passages of the source. Bounds are passed on as bounds.

The term IC50 denotes the concentration that gives 50% inhibition. In the case of `COc1cc(C(=O)N(C)CCO)cnc1-c1cc2nccc(-c3ccc(OC4CCOCC4)c(C#N)n3)c2o1` [Compound 327, 6-[7-[6-cyano-5-(oxan-4-yloxy)pyridin-2-yl]furo[3,2-b]pyridin-2-yl]-N-(2-hydroxyethyl)-5-methoxy-N-methylpyridine-3-carboxamide hydrochloride], the IC50 (on TBK1; at IKKε; in assay [1] (setting [2])) was < 100 nM throughout.
As for `COc1cc(C(=O)NC(C)(C)CCN(C)C)cnc1-c1cc2nccc(-c3ccc(NC4CCOCC4)c(C#N)c3)c2o1` [Compound 422, 6-(7-[3-cyano-4-[(oxan-4-yl)amino]phenyl]furo[3,2-b]pyridin-2-yl)-N-[4-(dimethylamino)-2-methylbutan-2-yl]-5-methoxypyridine-3-carboxamide], the IC50 (on TBK1; at IKKε; in assay [1] (setting [3])) was < 100 nM each time.
Consider `COc1cc(C(=O)N(C)C)cnc1-c1cc2nccc(-c3ccc(OC4CCN(C)CC4(F)F)c(C#N)c3)c2o1` (stereo not drawn) [Compound 404, 6-(7-[3-cyano-4-[(3,3-difluoro-1-methylpiperidin-4-yl)oxy]phenyl]furo[3,2-b]pyridin-2-yl)-5-methoxy-N,N-dimethylpyridine-3-carboxamide], for which the values for the IC50 (at TBK1; on IKKε; in assay [1] (setting [3])) were < 100 nM, < 100 nM and 100 to 1000 nM, respectively.
`COc1cc(C(=O)N2CC[C@@H](N(C)C)C2)ncc1-c1cc2nccc(-c3ccc(N4CC[C@H](F)C4)c(C#N)c3)c2o1` [Compound 450, 5-[2-(6-[[(3R)-3-(dimethylamino)pyrrolidin-1-yl]carbonyl]-4-methoxypyridin-3-yl)furo[3,2-b]pyridin-7-yl]-2-[(3S)-3-fluoropyrrolidin-1-yl]benzonitrile]: the IC50 was < 100 nM on TBK1, < 100 nM on IKKε and 100 to 1000 nM in assay [1] (setting [3]).
For the compound `COc1cc(C(=O)N2CCN(CCO)CC2)ccc1-c1cc2nccc(-c3ccc(OC4CCOCC4)c(C#N)c3)c2o1` [Compound 13, 5-(2-{4-[4-(2-Hydroxy-ethyl)-piperazine-1-carbonyl]-2-methoxy-phenyl}-furo[3,2-b]pyridin-7-yl)-2-(tetrahydro-pyran-4-yloxy)-benzonitrile], the IC50 (at TBK1; at IKKε; in assay [1] (setting [3])) was < 100 nM each time.
Consider `COc1cc(C(=O)N[C@@H]2CC[C@@H]3CN(C)C[C@@H]32)ccc1-c1cc2nccc(-c3ccc(OC4CCOCC4)c(C#N)c3)c2o1` [Compound 373, N-[(3aR,4R,6aS)-2-methyl-octahydrocyclopenta[c]pyrrol-4-yl]-4-[7-[3-cyano-4-(oxan-4-yloxy)phenyl]furo[3,2-b]pyridin-2-yl]-3-methoxybenzamide], for which the IC50 (at TBK1; on IKKε; in assay [1] (setting [3])) was < 100 nM each time.
For `COc1cc(C(=O)N(C)C2CN3CCC2CC3)ccc1-c1cc2nccc(-c3ccc(OC4CCOCC4)c(C#N)c3)c2o1` (stereo not drawn) [Compound 472, N-(1-Aza-bicyclo[2.2.2]oct-3-yl)-4-{7-[3-cyano-4-(tetrahydro-pyran-4-yloxy)-phenyl]-furo[3,2-b]pyridin-2-yl}-3-methoxy-N-methyl-benzamide], the IC50 (at TBK1; on IKKε; in assay [1] (setting [3])) was < 100 nM throughout.
For the compound `N#Cc1cc(-c2ccnc3cc(-c4ccc(C(=O)NC5CN6CCC5CC6)cc4)oc23)ccc1OC1CCCOC1` (stereo not drawn) [Compound 171], the IC50 (on TBK1; at IKKε; in assay [1] (setting [3])) was 100 to 1000 nM each time.
As to `COc1cc(C(=O)N2CC(O)C2)ccc1-c1cc2nccc(-c3ccc(N4CC[C@@H](F)C4)c(C#N)c3)c2o1` [Compound 497, 2-((R)-3-Fluoro-pyrrolidin-1-yl)-5-{2-[4-(3-hydroxy-azetidine-1-carbonyl)-2-methoxy-phenyl]-furo[3,2-b]pyridin-7-yl}-benzonitrile], the figures for the IC50 (at TBK1; on IKKε; in assay [1] (setting [3])) were < 100 nM, < 100 nM and 100 to 1000 nM, respectively.
`CN(CCO)C(=O)c1ccc(-c2cc3ncc(F)c(-c4ccc(NC5CCOCC5)c(C#N)c4)c3o2)c(F)c1` [Compound 303, 4-(7-[3-cyano-4-[(oxan-4-yl)amino]phenyl]-6-fluorofuro[3,2-b]pyridin-2-yl)-3-fluoro-N-(2-hydroxyethyl)-N-methylbenzamide]: the IC50 (at TBK1; at IKKε; in assay [1] (setting [3])) was 100 to 1000 nM throughout.
On to `CN(C)C(=O)c1cc(-c2cc3nccc(-c4ccc(OC5CCOCC5)c(C#N)c4)c3o2)n(C)c1` [Compound 400, 5-[7-[3-cyano-4-(oxan-4-yloxy)phenyl]furo[3,2-b]pyridin-2-yl]-N,N,1-trimethyl-1H-pyrrole-3-carboxamide], for which the IC50 at TBK1 is < 100 nM; at IKKε, < 100 nM; in assay [1] (setting [2]) it was 100 to 1000 nM.
For the compound `COc1cc(C(=O)N2CC[C@@H](O)C2)ccc1-c1cc2nccc(-c3ccc(OC4CCOCC4)c(C#N)c3)c2o1` [Compound 43, 5-{2-[4-((R)-3-Hydroxy-pyrrolidine-1-carbonyl)-2-methoxy-phenyl]-furo[3,2-b]pyridin-7-yl}-2-(tetrahydro-pyran-4-yloxy)-benzonitrile], the IC50 is < 100 nM on TBK1, < 100 nM at IKKε and 100 to 1000 nM in assay [1] (setting [3]).
Take `COc1cc(C(=O)NC2C3COCC32)ccc1-c1cc2nccc(-c3ccc(OC4CCOCC4)c(C#N)c3)c2o1` (stereo not drawn) [Compound 65, 4-{7-[3-Cyano-4-(tetrahydro-pyran-4-yloxy)-phenyl]-furo[3,2-b]pyridin-2-yl}-3-methoxy-N-(3-oxa-bicyclo[3.1.0]hex-6-yl)-benzamide]: the IC50 at TBK1 was < 100 nM; on IKKε, < 100 nM; in assay [1] (setting [3]) it was 100 to 1000 nM.
Take `N#Cc1cc(-c2ccnc3cc(-c4ccc(C(=O)O)cc4)oc23)ccc1OC1CCCOC1` (stereo not drawn) [Compound 166]: the IC50 on TBK1 is 100 to 1000 nM; at IKKε it was < 100 nM; in assay [1] (setting [3]) it was 100 to 1000 nM.
As to `COc1cc(C(=O)NC2CN(CC(C)C)C2)ccc1-c1cc2nccc(-c3ccc(OC4CCOCC4)c(C#N)c3)c2o1` [Compound 355, 4-[7-[3-cyano-4-(oxan-4-yloxy)phenyl]furo[3,2-b]pyridin-2-yl]-3-methoxy-N-[1-(2-methylpropyl)azetidin-3-yl]benzamide], the IC50 at TBK1 was < 100 nM; at IKKε, < 100 nM; in assay [1] (setting [2]) it was 100 to 1000 nM.
Take `COc1cc(C(=O)N2C[C@@H]3C[C@H]2CN3C)ccc1-c1cc2nccc(-c3ccc(OC4CCOCC4)c(C#N)c3)c2o1` [Compound 508]: the IC50 (at TBK1; at IKKε; in assay [1] (setting [3])) was < 100 nM each time.
As for `COc1cc(C(=O)N2CC3CCC2CN3C)cnc1-c1cc2nccc(-c3ccc(OC4CCOCC4)c(C#N)c3)c2o1` (stereo not drawn) [Compound 406, 5-[2-[3-methoxy-5-(([5-methyl-2,5-diazabicyclo[2.2.2]octan-2-yl]carbonyl)pyridin-2-yl]furo[3,2-b]pyridin-7-yl]-2-(oxan-4-yloxy)benzonitrile hydrochloride], the IC50 (on TBK1; at IKKε; in assay [1] (setting [3])) was < 100 nM throughout.

For the origin of these results see patent US10428080B2, “TBK/IKK inhibitor compounds and uses thereof” (Merck Patent GmbH, priority 2015, dated 2019).
